Assay results published in patent publication US20220387407A1 (priority 2021, published 2022).
Marks after values point to notes of the source that are not given here.

Experiments:
[1] = system: freely-moving rats; test: Arterial blood gases, pH and A-a gradient after morphine in freely-moving rats
[2] = system: freely-moving rats; test: Tissue O2 saturation (SpO2) analysis after morphine in freely-moving rats; settings: for Cumulative change in sPO2: Post-drug, % change from morphine: 15 min post-morphine value as pre-value
[3] = system: freely-moving rats; test: Blood pressure and heart rate measurement after morphine in freely-moving rats; settings: for DBP, mmHg: Post-drug, % change from Pre (cumulative) / HR/MAP, mmHg/beats/min: Post-drug, % change from Pre (cumulative) / Heart rate (HR), beats/min: Post-drug, % change from Pre (cumulative) / MAP, mmHg: Post-drug, % change from Pre (cumulative) / SBP, MmHg: Post-drug % change from Pre (cumulative): 15-30 min post-morphine; for DBP, mmHg: Post-drug, % change from morphine (cumulative) / HR/MAP, mmHg/beats/min: Post-drug, % change from morphine (cumulative) / Heart rate (HR), beats/min: Post-drug % change from morphine (cumulative) / MAP, mmHg: Post-drug, % change from morphine (cumulative) / SBP, MmHg: Post-drug, % change from morphine (cumulative): final 15 min morphine value as pre-value
[4] = system: isoflurane-anesthetized rats; settings: rat, in vivo
[5] = system: conscious rats; design: species or system Sprague-Dawley rats; settings: rat, in vivo
[6] = Tempol 60 mg/kg IV after morphine 10 mg/kg IV, FIG. 14
[7] = Tempol 60 mg/kg IV 15 min after morphine 10 mg/kg IV
[8] = Tempol 100 mg/kg IV 15 min after morphine 10 mg/kg IV

In the case of CN1CC[C@]23c4c5ccc(O)c4O[C@H]2[C@@H](O)C=C[C@H]3[C@H]1C5 [Morphine, morphine], the “pCO2, change elicited by morphine” value ([1]; morphine 10 mg/kg IV, FIG. 14) is reported as “equally pronounced increases”, the “pH, pO2 and sO2, change elicited by morphine” value ([1]; morphine 10 mg/kg IV, FIG. 14) is reported as “pronounced decreases” and the “A-a gradient, change elicited by morphine” value ([1]; morphine 10 mg/kg IV, FIG. 15) is reported as “rise”. The “SpO2, change elicited by morphine” value ([2]; morphine 10 mg/kg IV, FIG. 17) was “pronounced and long-lasting decrease”, the “MAP, change elicited by morphine” value ([3]; morphine 10 mg/kg IV, FIG. 18) was “relatively minor initial decreases” and the “heart rate, change elicited by morphine” value ([3]; morphine 10 mg/kg IV, FIG. 18) was “substantial decreases”. For the same compound, the “ratio of heart rate/MAP (index of baroreceptor heart rate reflex activity), change elicited by morphine” value ([3]; morphine 10 mg/kg IV, FIG. 20) was “somewhat minor reductions”.
With CC1(C)CC(O)CC(C)(C)N1[O] [Tempol, 4-hydroxy-2,2,6,6-tetramethylpiperidine-N-oxyl] the “frequency of breathing (Freq), change elicited by Tempol” value [4] was “minimal changes”, the “heart rate (HR), change elicited by Tempol” value [4] was “somewhat minor but sustained decreases” and the “mean (MAP), diastolic (DBP) and systolic (SBP) arterial blood pressures, change elicited by Tempol” value [4] was “pronounced dose-dependent decreases”. For the same compound, the “tidal volume (TV) and minute ventilation (MV), change elicited by Tempol” value [4] was “somewhat dose-dependent (relatively minor but sustained) increases”, the “total responses (all time points summed) in MAP, DBP, SBP and HR elicited by Tempol” value [4] was “significant decreases” and the “total responses (all time points summed) in TV and MV elicited by Tempol” value [4] was “significant increases”. For the same compound, the “effects of morphine on pH and sO2, effect of Tempol” value [1, 6] was “not reaching significance”, the “negative effects of morphine on pCO2 and pO2, effect of Tempol” value [1, 6] was “reversed the negative effects” and the “morphine-induced rise in A-a gradient, effect of Tempol” value ([1]; Tempol 60 mg/kg IV after morphine 10 mg/kg IV, FIG. 15 top panel) was “not affected”. The “A-a gradient, effect of Tempol” value ([1]; Tempol 100 mg/kg IV after morphine 10 mg/kg IV, 5 min post-administration, FIG. 15 bottom panel) was “pronounced decrease”, the “negative effects of morphine on pH, pCO2, pO2 and sO2, effect of Tempol” value ([1]; Tempol 100 mg/kg IV after morphine 10 mg/kg IV, FIG. 16) was “sustained reversal” and the “Cumulative change in sPO2: Post-drug, % change from morphine” value [2, 7] was “+5.0 ± 0.6*^,† %”. For the same compound, the “SpO2, effect of Tempol after morphine” value ([2]; Tempol 60 mg/kg IV 15 min after morphine 10 mg/kg IV, FIG. 17) was “minor short-lived rise”, the “Cumulative change in sPO2: Post-drug, % change from morphine” value [2, 8] was “+12.4 ± 2.0*^,† %” and the “negative effects of morphine on tissue oxygenation (SpO2), effect of Tempol” value ([2]; Tempol 100 mg/kg IV 15 min after morphine 10 mg/kg IV, FIG. 17) was “prompt and sustained reversal”. The “DBP, mmHg: Post-drug, % change from Pre (cumulative)” value [3, 7] was −16.7 ± 1.7 %, the “HR/MAP, mmHg/beats/min: Post-drug, % change from Pre (cumulative)” value [3, 7] was “+19.2 ± 12.7 %” and the “Heart rate (HR), beats/min: Post-drug, % change from Pre (cumulative)” value [3, 7] was “+1.8 ± 7.1 %”. For the same compound, the “MAP, mmHg: Post-drug, % change from Pre (cumulative)” value [3, 7] was −13.7 ± 1.7 %, the “SBP, MmHg: Post-drug % change from Pre (cumulative)” value [3, 7] was −9.5 ± 1.9 % and the “MAP, change elicited by Tempol after morphine” value ([3]; Tempol 60 mg/kg IV 15 min after morphine 10 mg/kg IV, FIG. 18) was “minor short-lived fall”. The “DBP, mmHg: Post-drug, % change from morphine (cumulative)” value [3, 7] was −13.9 ± 2.4*^,† %, the “HR/MAP, mmHg/beats/min: Post-drug, % change from morphine (cumulative)” value [3, 7] was “+53.3 ± 13.7*^,† %” and the “Heart rate (HR), beats/min: Post-drug % change from morphine (cumulative)” value [3, 7] was “+31.2 ± 10.3*^,† %”. For the same compound, the “MAP, mmHg: Post-drug, % change from morphine (cumulative)” value [3, 7] was −13.2 ± 1.8*^,† %, the “SBP, MmHg: Post-drug, % change from morphine (cumulative)” value [3, 7] was −11.3 ± 1.6*^,† % and the “DBP, mmHg: Post-drug, % change from Pre (cumulative)” value [3, 8] was −19.6 ± 2.0 %. The “HR/MAP, mmHg/beats/min: Post-drug, % change from Pre (cumulative)” value [3, 8] was “+18.3 ± 3.9*7%”, the “Heart rate (HR), beats/min: Post-drug, % change from Pre (cumulative)” value [3, 8] was −6.8 ± 3.0*^,† % and the “MAP, mmHg: Post-drug, % change from Pre (cumulative)” value [3, 8] was −19.4 ± 1.5*^,† %. For the same compound, the “SBP, MmHg: Post-drug % change from Pre (cumulative)” value [3, 8] was −18.8 ± 1.2*^,† %, the “MAP, change elicited by Tempol after morphine” value ([3]; Tempol 100 mg/kg IV 15 min after morphine 10 mg/kg IV, FIG. 18) was “prompt and sustained decrease” and the “DBP, mmHg: Post-drug, % change from morphine (cumulative)” value [3, 8] was −3.2 ± 4.1 %. For the same compound, the “HR/MAP, mmHg/beats/min: Post-drug, % change from morphine (cumulative)” value [3, 8] was “+43.0 ± 7.1*^,† %”, the “Heart rate (HR), beats/min: Post-drug % change from morphine (cumulative)” value [3, 8] was “+37.0 ± 9.9*^,† %” and the “MAP, mmHg: Post-drug, % change from morphine (cumulative)” value [3, 8] was −5.6 ± 3.2 %. The “SBP, MmHg: Post-drug, % change from morphine (cumulative)” value [3, 8] was −9.1 ± 2.3*^,† %, the “morphine-induced bradycardia, effect of Tempol” value ([3]; Tempol 60 and 100 mg/kg IV 15 min after morphine 10 mg/kg IV, FIG. 18) was “prompt and sustained reversal” and the “heart rate/MAP ratios, change elicited by Tempol after morphine” value ([3]; Tempol 60 or 100 mg/kg IV, especially the 100 mg/kg dose, after morphine 10 mg/kg IV, FIG. 20) was “rapid and sustained increase”. The “tail-flick latencies, effect of Tempol alone” value [5] was “no effects”.
